Measurements as given in patent US20220265657A1, “ADMINISTRATION METHOD AND DOSAGE REGIMEN FOR TREATMENT OF NEURODEGENERATIVE DISEASES USING TRAMETINIB AND MARKERS” (GENUV INC., priority 2019, published 2022).

Experiments:
[1] = test system: primary cortical neurons; assay: Western blot of primary cortical neurons; type: cell-based, ICR mice; settings: Aβ1-42 oligomers alone
Procedure: (§1) Lysates were centrifuged at 13,000 rpm for 20 min at 4° C., and the protein content in the supernatant was determined using the Bradford assay (Bio-rad, Hercules, Calif.). For subcellular fractionation, cells were lysed with lysis buffer (250 mM Sucrose, 20 mM HEPES, pH 7.4, 10 mM KCl, 1.5 mM MgCl2, 1 mM EGTA, 1 mM EDTA, 1 mM DTT) containing protease inhibitor for 30 min on ice, followed by centrifugation at 720 g for 5 min at 4° C. Supernatants were centrifuged at 15,000 rpm for 10 min at 4° C., and the resulting supernatant was used as the cytosol fraction. After centrifugation at 720 g for 5 min, pellets were washed with lysis buffer and dissolved in nuclear lysis buffer (50 mM Tris HCl, pH 8.0, 150 mM NaCl, 1% NP40, 0.5% sodium deoxycholate, 0.1% SDS, 10% glycerol) as the nuclear fraction. Protein from each sample was subjected to 8%˜15% SDS-PAGE, and the resolved proteins were transferred to nitrocellulose or polyvinylidene fluoride membrane. The membranes were blocked with 5% nonfat milk powder in Tris-buffered saline/Tween 20 (TBST) for 1 h at room temperature, then incubated with anti-phospho-ERK (Cell signaling), anti-ERK (Cell signaling), anti-LAMP1 (Abcam), anti-LC3 (Cell signaling), anti-cathepsin B (Cell signaling), anti-p62 (Cell signaling), anti-p62 (5114, Cell signaling), anti-phospho-mTOR (5536, Cell signaling), anti-mTOR (2983, Cell signaling), anti-phospho-ULK1 (14202, Cell signaling), anti-ULK1 (8054, Cell signaling), anti-TFEB (852501, Biolegend), and anti-GAPDH (Cell signaling) overnight at 4° C.

[2] = test system: primary cortical neurons; assay: Dendritic spine formation in primary cortical neurons; type: cell-based, ICR mice; settings: Aβ1-42 oligomer alone
Procedure: Cell culture: SH-SY5Y neuroblastoma cells were cultured at 37° C., 5% CO2., in Dulbecco's Modified Eagle Medium/Ham's F-12 nutrient mixture (DMEM/F12) (Invitrogen, Carlsbad, Calif.) supplemented with 10% heat-inactivated fetal bovine serum containing 100 units/ml penicillin, 100 μg/ml streptomycin. Primary cortical neuron cultures were derived from embryo day 18 (E18) from ICR mice. The dissociated cells were plated on glass cover slips coated with poly-D-lysine in Neurobasal medium supplemented with 2% B27 (Invitrogen), 100 units/ml penicillin, 100 μg/ml streptomycin, and 2 mM L-glutamine. Primary NSCs from normal mice were isolated from the subventricular zone (SVZ) of 8 week-old C57BL/6 mice brain. NSCs from adult Tg2576 mice brain were obtained from Seoul National University Hospital. The neurospheres were cultured as previously described (M. Y. Kim, B. S. Moon, K. Y. Choi, Isolation and maintenance of cortical neural progenitor cells in vitro. Methods Mol Biol 1018, 3-10 (2013)). For neurosphere culture from normal mice, the cells were dissociated from brain tissue and grown in N2 medium in 25 cm^2 flasks (SPL, Gyeonggi-do, Korea) in suspension. bFGF (20 ng/ml, Peprotech, Princeton, N.J.) and human EGF (20 ng/ml, Peprotech) were added to the media to allow the cells to form neurospheres. For analyses, NSCs were cultured as a monolayer. For differentiation of NSCs, the neurospheres were dissociated with TrypLE (Invitrogen), plated on 15 μg/ml poly-L-ornithine-(Sigma-Aldrich, St. Louis, Mo.) and 10 μg/ml fibronectin (Gibco)-coated plates, and cultured in bFGF- and EGF-depleted N2 medium for 2 days. For neurosphere culture from Tg2576 mice, the cells were grown in DMEM/F12 supplemented with B27 supplements in 75 cm^2 flasks (SPL) in suspension. bFGF (10 ng/ml) and human EGF (10 ng/ml) were added to the media to allow the cells to form neurospheres. […]

[3] = test system: SH-SY5Y cells; assay: Western blot of SH-SY5Y cell lysates; type: cell-based; settings: co-treatment with trametinib, in the presence of Aβ1-42 oligomers
Procedure: Cell culture: SH-SY5Y neuroblastoma cells were cultured at 37° C., 5% CO2., in Dulbecco's Modified Eagle Medium/Ham's F-12 nutrient mixture (DMEM/F12) (Invitrogen, Carlsbad, Calif.) supplemented with 10% heat-inactivated fetal bovine serum containing 100 units/ml penicillin, 100 μg/ml streptomycin. Primary cortical neuron cultures were derived from embryo day 18 (E18) from ICR mice. The dissociated cells were plated on glass cover slips coated with poly-D-lysine in Neurobasal medium supplemented with 2% B27 (Invitrogen), 100 units/ml penicillin, 100 μg/ml streptomycin, and 2 mM L-glutamine. Primary NSCs from normal mice were isolated from the subventricular zone (SVZ) of 8 week-old C57BL/6 mice brain. NSCs from adult Tg2576 mice brain were obtained from Seoul National University Hospital. The neurospheres were cultured as previously described (M. Y. Kim, B. S. Moon, K. Y. Choi, Isolation and maintenance of cortical neural progenitor cells in vitro. Methods Mol Biol 1018, 3-10 (2013)). For neurosphere culture from normal mice, the cells were dissociated from brain tissue and grown in N2 medium in 25 cm^2 flasks (SPL, Gyeonggi-do, Korea) in suspension. bFGF (20 ng/ml, Peprotech, Princeton, N.J.) and human EGF (20 ng/ml, Peprotech) were added to the media to allow the cells to form neurospheres. For analyses, NSCs were cultured as a monolayer. For differentiation of NSCs, the neurospheres were dissociated with TrypLE (Invitrogen), plated on 15 μg/ml poly-L-ornithine-(Sigma-Aldrich, St. Louis, Mo.) and 10 μg/ml fibronectin (Gibco)-coated plates, and cultured in bFGF- and EGF-depleted N2 medium for 2 days. For neurosphere culture from Tg2576 mice, the cells were grown in DMEM/F12 supplemented with B27 supplements in 75 cm^2 flasks (SPL) in suspension. bFGF (10 ng/ml) and human EGF (10 ng/ml) were added to the media to allow the cells to form neurospheres. For inducing differentiation and AP expression, the neurospheres were dissociated with pipetting, plated on 15 μg/ml poly-L-ornithine- and 10 μg/ml fibronectin (Gibco)-coated plates, and cultured in bFGF- and EGF-depleted medium for 2 days.
as §1

Aβ1-42 oligomers: cytotoxic oligomers of Aβ1-42 used to induce neurotoxic conditions
decrease of mature cathepsin B level compared to non-treated neurons (CTL) [1]: 26% | decrease in number of dendritic spines compared to vehicle treated group (CTL) [2]: 24%

CO/C1=C\C(C)=C\[C@@H](C)[C@@H](O)[C@@H](C)C/C(C)=C/C=C/[C@H](OC)[C@@H]([C@@H](C)[C@@H](O)[C@H](C)[C@@]2(O)C[C@@H](O)[C@H](C)[C@@H](C(C)C)O2)OC1=O [bafilomycin A1]
effect of trametinib on increasing mature cathepsin B and decreasing p62 [3]: eliminated the effect of trametinib
